Target: T1, human recombinant mGluR5 (Homo sapiens, UniProt P41594)
T1 construct: expressed in transfected cells; host or cells: HEK 293 cell line cultured with tetracycline, hygromycin and geneticin; tetracycline removed 3-7 days before the assay
Test: positive modulation of mGluR5, calcium based FLIPR assay in HEK 293 cells
Conditions: HEK 293 cell line expressing human recombinant mGluR5; EC50 of the modulation of the glutamate response (glutamate approx. 5% basal stimulation); peak height of Ca release fluorescence signal
Summary of the method: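 Potentiation EC50 derived by nonlinear fit of peak calcium fluorescence after a near-5%-maximal glutamate challenge, following 5 min compound exposure (intrinsic activity also recorded). Dye-loaded recombinant human mGluR5 HEK 293 cells in Ringer solution pH 7.4, 1% DMSO; plate controls were vehicle (100%) and 10 μM CDPPB (200%).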

T1 sequence (P41594 21-1212): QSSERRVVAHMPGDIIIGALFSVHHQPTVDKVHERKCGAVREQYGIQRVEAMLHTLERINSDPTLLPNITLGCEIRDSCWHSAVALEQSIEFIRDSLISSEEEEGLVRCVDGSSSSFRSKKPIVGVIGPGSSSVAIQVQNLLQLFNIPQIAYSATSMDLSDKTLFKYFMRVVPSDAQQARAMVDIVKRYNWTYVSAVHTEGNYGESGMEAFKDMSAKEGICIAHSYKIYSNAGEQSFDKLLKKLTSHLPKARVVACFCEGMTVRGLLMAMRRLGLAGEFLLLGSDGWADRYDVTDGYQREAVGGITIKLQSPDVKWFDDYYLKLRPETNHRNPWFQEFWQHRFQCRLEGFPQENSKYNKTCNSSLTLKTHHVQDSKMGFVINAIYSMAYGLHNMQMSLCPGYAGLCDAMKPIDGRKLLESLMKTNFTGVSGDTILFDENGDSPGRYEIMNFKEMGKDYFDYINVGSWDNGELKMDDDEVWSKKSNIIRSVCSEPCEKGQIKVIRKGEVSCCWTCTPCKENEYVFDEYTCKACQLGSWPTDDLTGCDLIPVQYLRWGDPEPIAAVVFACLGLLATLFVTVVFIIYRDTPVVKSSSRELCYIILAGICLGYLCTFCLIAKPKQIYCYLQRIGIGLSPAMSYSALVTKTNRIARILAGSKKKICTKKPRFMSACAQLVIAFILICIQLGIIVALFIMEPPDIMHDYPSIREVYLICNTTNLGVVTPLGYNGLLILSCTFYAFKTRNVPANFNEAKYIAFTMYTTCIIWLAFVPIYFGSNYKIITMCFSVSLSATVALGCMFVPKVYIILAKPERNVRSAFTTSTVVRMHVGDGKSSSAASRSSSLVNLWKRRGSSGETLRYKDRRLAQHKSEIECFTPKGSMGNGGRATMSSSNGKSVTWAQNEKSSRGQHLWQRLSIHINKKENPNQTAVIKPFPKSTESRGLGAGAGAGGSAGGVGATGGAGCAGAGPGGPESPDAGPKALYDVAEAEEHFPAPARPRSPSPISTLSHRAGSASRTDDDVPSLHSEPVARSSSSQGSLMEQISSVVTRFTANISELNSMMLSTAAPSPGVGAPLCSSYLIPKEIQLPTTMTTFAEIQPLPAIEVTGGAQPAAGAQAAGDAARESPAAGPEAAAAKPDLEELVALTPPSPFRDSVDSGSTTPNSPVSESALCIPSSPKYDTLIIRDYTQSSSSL

Row | SMILES | EC50
1 | CCC(C)c1nc(-c2ccc(F)c(C)c2)nn1CC(=O)N1CCN(c2cc(OC)ccn2)CC1 (centres unmarked) [Example 07.04.0100.] | 0.67 µM
2 | O=C(Cn1nc(-c2ccc(F)cc2)nc1C1CCCC1)N1CCN(c2ncccn2)CC1 [Example 07.04.046.] | 0.586 µM
3 | CCc1cc(N2CCN(C(=O)Cn3nc(-c4ccc(F)cc4)nc3-c3ccc(F)cc3)CC2)nc(Cl)n1 [Example 07.03.27.] | 1.21 µM
4 | Cc1ccnc(N2CCN(C(=O)Cn3nc(-c4ccc(F)cn4)nc3-c3ccc(F)cc3)CC2)c1 [Example 07.04.138.] | 1.01 µM
5 | COc1ccnc(N2CCN(C(=O)Cn3nc(-c4ccc(F)c(C)c4)nc3C3CCC(C)CC3)CC2)c1 (centres unmarked) [Example 07.04.131.] | 1 µM
6 | O=C(Cn1nc(-c2ccc(F)cc2)nc1-c1ccc(F)cc1)N1CCN(c2cc(NCc3ccccn3)ncn2)CC1 [Example 07.08.17.] | 0.286 µM
7 | COc1ccc(-c2nc(-c3ccc(OC)cc3)n(CC(=O)N3CCN(c4ncccc4C#N)CC3)n2)cc1 [Example 07.02.16.] | 0.266 µM
8 | Cc1cc(C)nc(N2CCN(C(=O)Cn3nc(-c4ccc(F)cc4)nc3-c3ccc(F)cc3)CC2)n1 [Example 07.03.07.] | 0.61 µM
9 | COc1cc(OC)nc(N2CCN(C(=O)Cn3nc(-c4ccc(F)cc4)nc3-c3ccc(F)cc3)CC2)n1 [Example 07.03.13.] | 0.224 µM
10 | Cc1ccnc(N2CCN(C(=O)Cn3nc(-c4ccc(F)c(C)c4)nc3C3CCCC3)CC2)c1 [Example 07.04.114.] | 0.495 µM
11 | COc1cc(N2CCN(C(=O)Cn3nc(-c4ccc(F)c(C)c4)nc3C3CCCCC3)CC2)ncn1 [Example 07.04.065.] | 0.296 µM
12 | COc1cc(N2CCN(C(=O)Cn3nc(-c4ccccc4)nc3-c3ccccc3)CC2)ncn1 [Example 07.04.019.] | 1.09 µM
13 | CN1CCN(CCOc2cc(N3CCN(C(=O)Cn4nc(-c5ccc(F)cc5)nc4-c4ccc(F)cc4)CC3)ncn2)CC1 [Example 07.09.28.] | 0.523 µM
14 | CCc1nc(-c2ccc(F)c(C)c2)nn1CC(=O)N1CCN(c2ncccn2)CC1 [Example 07.04.092.] | 0.654 µM
15 | O=C(Cn1nc(-c2ccc(F)cc2)nc1C1CCCCC1)N1CCN(c2ncccn2)CC1 [Example 07.04.031.] | 0.661 µM
16 | COc1cccc(-c2nc(C3CCCCC3)n(CC(=O)N3CCN(c4cc(C)ccn4)CC3)n2)c1 [Example 07.04.052.] | 0.898 µM
17 | N#Cc1ccccc1N1CCN(C(=O)Cn2nc(-c3ccc(F)cc3)nc2-c2ccc(F)cc2)CC1 [Example 07.04.007.] | 1.35 µM
18 | N#Cc1cccc(N2CCN(C(=O)Cn3nc(-c4ccc(F)cc4)nc3-c3ccc(F)cc3)CC2)c1 [Example 07.03.06.] | 0.35 µM
19 | COc1cc(N2CCN(C(=O)Cn3nc(-c4ccc(F)cc4)nc3-c3ccc(F)cc3)CC2)ccn1 [Example 07.03.24.] | 0.254 µM
20 | CCc1nc(-c2ccc(F)c(C)c2)nn1CC(=O)N1CCN(c2cc(OC)ccn2)CC1 [Example 07.04.094.] | 0.991 µM

Row | SMILES | EC50
21 | CCC(C)c1nc(-c2ccc(F)c(C)c2)nn1CC(=O)N1CCN(c2ncccn2)CC1 (centres unmarked) [Example 07.04.101.] | 0.294 µM
22 | O=C(Cn1nc(-c2ccc(F)cc2)nc1-c1ccc(F)cc1)N1CCN(c2cc(N3CCC3)ncn2)CC1 [Example 07.08.22.] | 0.28 µM
23 | Cc1cc(-c2nc(C3CCCCC3C)n(CC(=O)N3CCN(c4ccccn4)CC3)n2)ccc1F (centres unmarked) [Example 07.04.133.] | 1.08 µM
24 | N#Cc1ccc(-c2nc(-c3ccccc3)nn2CC(=O)N2CCN(c3ncccn3)CC2)cc1 [Example 07.10.25.] | 0.639 µM
25 | CN1CCN(c2cc(N3CCN(C(=O)Cn4nc(-c5ccc(F)cc5)nc4-c4ccc(F)cc4)CC3)ncn2)CC1 [Example 07.08.23.] | 1.59 µM
26 | COc1cccc(-c2nc(C3CCCCC3)n(CC(=O)N3CCN(c4ncccn4)CC3)n2)c1 [Example 07.04.051.] | 0.997 µM
27 | COc1cc(N2CCN(C(=O)Cn3nc(-c4ccc(F)c(C)c4)nc3C3CCC(C)CC3)CC2)ncn1 (centres unmarked) [Example 07.04.132.] | 0.96 µM
28 | COc1cc(N2CCN(C(=O)Cn3nc(-c4ccccc4)nc3-c3ccc(F)c(C)c3)CC2)ncn1 [Example 07.04.074.] | 0.325 µM
29 | CN(C)c1cncc(N2CCN(C(=O)Cn3nc(-c4ccc(F)cc4)nc3-c3ccc(F)cc3)CC2)n1 [Example 07.03.11.] | 0.283 µM
30 | CCCCc1nc(-c2ccc(F)c(C)c2)nn1CC(=O)N1CCN(c2ccccn2)CC1 [Example 07.04.116.] | 0.697 µM
31 | COc1ccnc(N2CCN(C(=O)Cn3nc(-c4ccc(F)c(C)c4)nc3C)CC2)c1 [Example 07.04.096.] | 1.52 µM
32 | O=C(Cn1nc(-c2ccc(F)cc2)nc1-c1ccc(F)cc1)N1CCN(c2cc(NC3CC3)ncn2)CC1 [Example 07.08.04.] | 0.43 µM
33 | O=C(Cn1nc(-c2ccccc2)nc1-c1ccccc1)N1CCN(c2ccccn2)CC1 [Example 07.02.27.] | 0.353 µM
34 | O=C(Cn1nc(-c2ccc(F)cc2)nc1-c1ccc(F)cc1)N1CCN(c2nccc(C(F)(F)F)n2)CC1 [Example 07.03.03.] | 0.595 µM
35 | O=C(Cn1nc(-c2ccc(F)cc2)nc1-c1ccc(F)cc1)N1CCN(c2ccccc2O)CC1 [Example 07.04.010.] | 1.2 µM
36 | Cc1cc(-c2nc(C3CCCCC3)n(CC(=O)N3CCN(c4ccccn4)CC3)n2)ccc1F [Example 07.04.071.] | 0.347 µM
37 | Cc1cc(-c2nc(CC(C)C)n(CC(=O)N3CCN(c4ccccn4)CC3)n2)ccc1F [Example 07.04.106.] | 0.387 µM
38 | COc1cccc(-c2nc(C(C)C)n(CC(=O)N3CCN(c4ncccn4)CC3)n2)c1 [Example 07.04.161.] | 1.52 µM
39 | CN(c1cc(N2CCN(C(=O)Cn3nc(-c4ccc(F)cc4)nc3-c3ccc(F)cc3)CC2)ncn1)C1CC1 [Example 07.08.18.] | 0.455 µM
40 | COc1ccc(-c2nc(-c3ccc(F)cc3)nn2CC(=O)N2CCN(c3cccnn3)CC2)cc1 [Example 07.04.043.] | 0.334 µM

The next lines start with the values.

Row | EC50 | SMILES
41 | 0.086 µM | O=C1CCCN1CCCOc1cc(N2CCN(C(=O)Cn3nc(-c4ccc(F)cc4)nc3-c3ccc(F)cc3)CC2)ncn1 [Example 07.09.27.]
42 | 0.1 µM | COc1ccc(-c2nc(-c3ccccc3)n(CC(=O)N3CCN(c4ccccn4)CC3)n2)cc1 [Example 07.04.054.]
43 | 0.22 µM | COc1cccc(N2CCN(C(=O)Cn3nc(-c4ccc(F)cc4)nc3-c3ccc(F)cc3)CC2)n1 [Example 07.02.03.]
44 | 0.059 µM | COc1cc(N2CCN(C(=O)Cn3nc(-c4ccc(F)c(C)c4)nc3-c3ccc(F)c(C)c3)CC2)ncn1 [Example 07.04.155.]
45 | 0.022 µM | Cc1cc(-c2nc(-c3ccc(F)c(C)c3)n(CC(=O)N3CCN(c4ncccn4)CC3)n2)ccc1F [Example 07.04.153.]
46 | 0.013 µM | O=C(Cn1nc(-c2ccc(OC(F)F)cc2)nc1-c1ccccc1)N1CCN(c2ncccn2)CC1 [Example 7.04.165]
47 | 0.22 µM | Cc1cc(-c2nc(-c3ccccc3)nn2CC(=O)N2CCN(c3ccccn3)CC2)ccc1F [Example 07.04.076.]
48 | 0.03 µM | COc1cccc(-c2nc(-c3ccc(F)cc3)n(CC(=O)N3CCN(c4ncccn4)CC3)n2)c1 [Example 07.04.028.]
49 | 0.192 µM | COc1cnnc(N2CCN(C(=O)Cn3nc(-c4ccc(F)c(C)c4)nc3-c3ccccc3)CC2)c1 [Example 07.04.064.]
50 | 0.134 µM | O=C(Cn1nc(-c2ccc(F)cc2)nc1-c1ccc(F)cc1)N1CCN(c2cccnn2)CC1 [Example 07.03.12.]
51 | 0.064 µM | O=C(Cn1nc(-c2ccc(F)cc2)nc1-c1ccc(F)cc1)N1CCN(c2cc(OCCOCCO)ncn2)CC1 [Example 07.09.04.]
52 | 0.208 µM | CCN(C)c1cc(N2CCN(C(=O)Cn3nc(-c4ccc(F)cc4)nc3-c3ccc(F)cc3)CC2)ncn1 [Example 07.08.19.]
53 | 0.217 µM | O=C(Cn1nc(-c2ccc(F)cc2)nc1-c1ccc(F)cc1)N1CCN(c2cc(C(F)(F)F)ccn2)CC1 [Example 07.02.07.]
54 | 0.164 µM | N#Cc1cccc(-c2nc(-c3ccccc3)n(CC(=O)N3CCN(c4ncccn4)CC3)n2)c1 [Example 07.10.06.]
55 | 0.128 µM | O=C(Cn1nc(-c2ccc(F)cc2)nc1-c1ccccc1)N1CCN(c2ccccn2)CC1 [Example 07.10.40.]
56 | 0.101 µM | Cc1cc(-c2nc(C3CCCCC3)n(CC(=O)N3CCN(c4ncccn4)CC3)n2)ccc1F [Example 07.04.066.]
57 | 0.017 µM | Cc1cccc(-c2nc(-c3ccccc3)n(CC(=O)N3CCN(c4ncccn4)CC3)n2)c1 [Example 07.10.05.]
58 | 0.025 µM | COc1cnc(N2CCN(C(=O)Cn3nc(-c4ccc(F)cc4)nc3-c3ccc(F)cc3)CC2)nc1 [Example 07.04.001., 2-(3,5-Bis-(4-fluoro-phenyl)-(1,2,4)triazol-1-yl)-1-(4-(5-methoxy-pyrimidin-2-yl)-piperazin-1-yl)-ethanone]
59 | 0.106 µM | O=C(Cn1nc(-c2ccc(F)cc2)nc1-c1ccc(F)cc1)N1CCN(c2cc(OCCn3ccnc3)ncn2)CC1 [Example 07.09.17.]
60 | 0.064 µM | COc1ccc(-c2nc(-c3ccccc3)n(CC(=O)N3CCN(c4cc(OC)ccn4)CC3)n2)cc1 [Example 07.04.056.]
61 | 0.085 µM | O=C(Cn1nc(-c2ccc(F)cc2)nc1-c1ccc(F)cc1)N1CCN(c2ncncn2)CC1 [Example 07.03.14.]
62 | 0.121 µM | COc1cc(N2CCN(C(=O)Cn3nc(-c4cc(C)cc(C)c4)nc3-c3ccccc3)CC2)ncn1 [Example 07.10.36.]
63 | 0.019 µM | COc1cc(N2CCN(C(=O)Cn3nc(-c4ccc(OC(F)F)cc4)nc3-c3ccccc3)CC2)ncn1 [Example 7.04.162]
64 | 0.033 µM | COc1ccc(-c2nc(-c3ccc(F)cc3)nn2CC(=O)N2CCN(c3ncccn3)CC2)cc1 [Example 07.04.040.]
65 | 0.024 µM | O=C(Cn1nc(-c2ccc(F)cc2)nc1-c1ccc(F)cc1)N1CCN(c2ncccn2)CC1 [Example 07.01.01., 2-(3,5-Bis-(4-fluoro-phenyl)-(1,2,4)triazol-1-yl)-1-(4-pyrimidin-2-yl-piperazin-1-yl)-ethanone]

From patent US8889677B2, “Substituted triazoles useful as mGlu5 receptor modulators” (Boehringer Ingellheim International GmbH, priority 2012, dated 2014)
